{"source": "patent US20250241901A1", "about": "“ACTIVATION OF MNRR1 / CHCHD2 AS A THERAPEUTIC TARGET FOR MITOCHONDRIA ASSOCIATED DISORDERS” (Wayne State University, priority 2024, published 2025)", "key": {"[1]": {"tested_on": "MNRR1", "assay": "MNRR1 immunoblot in several other human cell lines", "assay_type": "cell-based", "conditions": "10 μM, 24 h", "protocol": "FIGS. 5A-5E: FIG. 5A: Venn diagram showing activators identified in HEK293 and MDA-MB-468 cells. FIG. 5B: Equal amounts of MELAS cells treated with Vehicle (DMSO) or various MNRR1 activating compounds (10 μM) for 24 h were separated on an SDS-PAGE gel and probed for MNRR1 levels. Actin was probed as a loading control and numbers below represent an average and standard deviation (SD) of two biological replicates. FIGS. 5C-5E: Equal amounts of cell lysates from various cell lines treated with vehicle (DMSO) or tizoxanide (10 μM) for 24 h were separated on an SDS-PAGE gel and probed for MNRR1 plus loading controls GAPDH or tubulin.\nImmunoblotting: Immunoblotting was performed as described previously. Cell lysates for immunoblotting were prepared using RIPA buffer (Abcam, Waltham, MA) and included a protease and phosphatase inhibitor cocktail (Sigma, St. Louis, MO). Total protein extracts were obtained by centrifugation at 21,000×g for 30 min at 4° C. The clear supernatants were transferred to new tubes and quantified using the Bradford reagent with BSA as standard (BioRad, Hercules. CA). […] For detection after immunoblotting, the SuperSignal™ West Pico PLUS substrate (ThermoFisher, Waltham, MA) was used to generate chemiluminescence signal, which was detected with X-Ray film (RadTech, Vassar, MI)."}, "[2]": {"tested_on": "intra-amniotic LPS-induced preterm labor and birth", "assay": "Murine model of intra-amniotic LPS-induced preterm labor and birth", "assay_type": "in vivo, mouse", "protocol": "FIGS. 2A-2F. Nitazoxanide prevents preterm delivery and improves neonatal mortality in vivo. (FIG. 2A) Schematic illustration depicting the administration of nitazoxanide (marketed under the commercial name Alinia) and LPS in the murine model of preterm birth. (FIG. 2B) Gestational length of mice was obtained using video-monitoring until delivery (n=6-8 animals). (FIG. 2C) Neonatal mortality was determined by calculating the number of dead pups over total litter size (n=6-8 animals). […] No pups from LPS-injected dams survived beyond week 0 of birth. (FIG. 2E) MNRR1 transcript levels were measured in mouse decidual tissue (17.5 dpc). Actin was used as a housekeeping gene to normalize expression (n=4 animals for all except PBS+N, where n=3). (FIG. 2F) Equal amounts of whole placental lysates were separated on an SDS-PAGE gel and probed for MNRR1 levels. Actin was used as a loading control. Gel is representative of data obtained from 2 animals. Keyfor FIGS. 2B, 2C, and 2E: PBS, phosphate buffered saline injection; LPS, lipopolysaccharide injection; PBS+N, PBS injection with oral gavage of nitazoxanide; LPS+N, LPS injection with oral gavage of nitazoxanide. Significance: *, p<0.05; **, p<0.01.\nAnimal model of intra-amniotic LPS-induced preterm labor and birth: Nitazoxanide (Alinia®; ROMARK, Tampa, FL, USA) was dissolved in sterile injectable water. The nitazoxanide volume was mouse weight dependent (100 μL of nitazoxanide solution at 200 mg/kg was administered for every mouse weight of 10 g). […] Dams were anesthetized on 16.5 dpc by inhalation of 2-3% (Fluriso™ (Isoflurane, USP), Vetone Boise, ID, USA) and 1-2 L/min of oxygen in an induction chamber. Anesthesia was maintained with a mixture of 1.5-2% isoflurane and 1.5-2 L/min of oxygen. Dams were positioned on a heating pad and stabilized with adhesive tape. Fur removal from the abdomen and thorax was performed by applying Nair cream (Church & Dwight Co., Inc., Ewing, NJ, USA) to those areas. Body temperature was detected with a rectal probe (VisualSonics Inc., Toronto, Ontario, Canada) and maintained in the range of 37±1° C. Respiratory and heart rates were monitored by electrodes embedded in the heating pad. An ultrasound probe was fixed and mobilized with a mechanical holder, and the transducer was slowly moved toward the abdomen. […] Following injection, dams were monitored by using a video camera with infrared light (Sony) until delivery. Video monitoring allowed for determination of gestational length, which was calculated from the presence of the vaginal plug (0.5 dpc) until the observation of the first pup in the cage bedding. […] The rates of neonatal mortality at birth were calculated as the number of pups found dead among the total litter size. […]"}, "[3]": {"assay": "Clinical use of nitazoxanide in adult humans", "assay_type": "in vivo, human", "conditions": "500 mg (per adult) twice a day"}, "[4]": {"conditions": "200 mg/kg oral gavage, intra-amniotic LPS 16.5 dpc"}}}
{"smiles": "O=C(Nc1ncc([N+](=O)[O-])s1)c1ccccc1O", "note": "[tizoxanide, Tizoxanide]", "values": [{"measurement": "MNRR1 level", "setting": "[1]", "value": "increase of MNRR1"}]}
{"smiles": "CC(=O)Oc1ccccc1C(=O)Nc1ncc([N+](=O)[O-])s1", "note": "[nitazoxanide, Nitazoxanide]", "values": [{"measurement": "neonatal mortality at birth", "setting": "[2]; 200 mg/kg oral gavage, LPS-injected dams, compared to controls", "value": "significantly reduced"}, {"measurement": "LPS-induced preterm birth (delivery <18.5 dpc)", "setting": "[2]; [4]", "value": "preventing LPS-induced preterm birth (delivery <18.5 days post coitum (dpc)) in all pregnant dams"}, {"measurement": "gestational age", "setting": "[2]; [4]", "value": "extended"}, {"measurement": "neonates surviving up to 3 weeks", "setting": "[2]; neonates born to LPS-injected dams treated with nitazoxanide", "value": "almost one-half"}, {"measurement": "drug concentration in the blood", "setting": "[3]", "value": "around 600 micromolar"}]}
